# In publication PMC3116189, “Novel Natural Inhibitors of CYP1A2 Identified by in Silico and in Vitro Screening” (International Journal of Molecular Sciences, 2011):
# Entries after “also recorded” stand apart in the source; their conditions may differ.
# Target: T1, CYP1A2 (Homo sapiens, UniProt P05177)
# T1 sequence (P05177 1-516): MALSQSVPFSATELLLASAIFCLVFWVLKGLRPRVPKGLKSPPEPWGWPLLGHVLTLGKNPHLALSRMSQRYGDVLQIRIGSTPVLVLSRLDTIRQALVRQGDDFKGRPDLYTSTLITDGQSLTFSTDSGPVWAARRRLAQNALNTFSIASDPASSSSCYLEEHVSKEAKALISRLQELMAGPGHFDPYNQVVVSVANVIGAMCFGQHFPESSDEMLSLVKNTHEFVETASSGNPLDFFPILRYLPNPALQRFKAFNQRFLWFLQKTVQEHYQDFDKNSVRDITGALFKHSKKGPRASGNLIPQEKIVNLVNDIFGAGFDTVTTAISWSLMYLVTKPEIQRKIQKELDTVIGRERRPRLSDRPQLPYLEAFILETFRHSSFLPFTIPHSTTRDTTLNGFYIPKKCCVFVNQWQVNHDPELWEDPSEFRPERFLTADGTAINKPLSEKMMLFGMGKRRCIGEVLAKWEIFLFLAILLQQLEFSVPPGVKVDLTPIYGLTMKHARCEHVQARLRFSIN
# Assay: in vitro
# Format: biochemical
# Details: 1 μM active ingredient, Rh CYP1A2-mediated phenacetin O-deethylation, test dataset of 202 herb ingredients
# Procedure: A total of 18 candidate compounds selected by pharmacophore and docking were examined for their potential to inhibit rhCYP1A2 phenacetin O-deethylation activity at a test concentration of 1 μM.
# The basic incubation medium contained 100 mM potassium phosphate buffer (PH 7.4), 50 pmol recombinant human CYP1A2, 25 μM phenacetin and 1 μM active ingredients. The final incubation volume was 200 μL. After 5 min pre-incubation at 37 °C, the reaction was initiated by the addition of NADPH-generating system (5 mM MgCl2, 10 mM glucose 6-phosphates, 1 mM NADPH, and 2.5 U per mL glucose 6-phosphate dehydrogenase). Incubations were performed in a 37 °C shaking water bath for 1 h. Reactions were stopped by adding 0.4 mL of ice-cold acetonitrile containing 0.2 mg/L tinidazole (IS). […] The column was maintained at 35 °C and the injection volume was 10 μL.
# 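Further: recombinant CYP1A2 incubated for 1 h at 37 °C, with the reaction started by an NADPH-generating system.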
row,Molecule,% of Control Indication Activity (Mean)
1,Astragaloside,> 90%
2,Echinacoside,> 90%
3,Ginkgolide B,> 90%
4,Lobetyolin,> 90%
5,Pinoresinol diglucoside,> 90%
6,Rhodiosin,> 90%
7,Salvianolic acid B,> 90%
8,Veratramin,> 90%

# Same assay, conditions: 1 μM test concentration
row,Molecule,inhibitory activity to CYP1A2 (10% or greater inhibition at 1 μM)
1,"COc1cc(-c2oc3cc(O)c(OC)c(O)c3c(=O)c2O)ccc1O [zhang 817, Spinacetin]",found to have inhibition of CYP1A2 activity; also recorded: confirmed to have inhibitory activities to CYP1A2

# Same assay, conditions: human, recombinant enzyme, pH 7.4
row,Molecule,"activity at 1 h, 1 μM"
1,"C[C@@H]1O[C@@H](Oc2c(-c3ccc(O)cc3)oc3cc(O)cc(O)c3c2=O)[C@H](O)[C@H](O)[C@H]1O [zhang 911, Kaempferol-3-O-α-L-rhamnopyranoside]",> 90%

# Same assay, conditions: human, recombinant human CYP1A2, pH 7.4, probe phenacetin (25 μM), O-deethylation to acetaminophen; 1 μM test compound, 25 μM phenacetin, average of duplicate determinations; read-out: % of Control Indication Activity
row,Molecule,"activity at 1 h, 1 μM"
1,"COc1ccc(-c2oc3cc(O)cc(O)c3c(=O)c2OC)cc1OC [zhang 759, 3,3′,4′-Tri-Me ether-3,3′,4′,5,7-Pentahydroxyflavone]",> 90%
2,"COc1cc(-c2oc3cc(O)c(OC)c(O)c3c(=O)c2O)ccc1O [zhang 817, Spinacetin]",< 90%
